Measurements from US5420335A, “Parenteral nutrients based on watersoluble glycerol bisacetoacetates” (priority 1993, dated 1995).
Entries after “also recorded” stand apart in the source; their conditions may differ. Where two headings read alike, the source gives them in different places.

Key:
[1] = in words, prior art; cited from earlier work
[2] = in words; cited from earlier work
[3] = Water solubility; conditions: in words

Q: Which results are given for `CC(=O)CC(=O)OCC(O)CO` (stereo not drawn) [monoacetoacetin, monoacetoacetylglycerol]?
A: water solubility [1]: water soluble; metabolized in vivo [2]: metabolized in vivo

Q: Which water solubility [3] does the source give for `CC(=O)CC(=O)OCC(COC(=O)CC(C)=O)OC(=O)CC(C)=O` [trisacetoacetyl glycerol, trisacetoacetylglycerol] here?
A: rendered water soluble when in the presence of a glycerol bisacetoacetate; also recorded: insoluble by itself in water; also recorded: surprisingly solubilized in water when in the presence of 1,2- and 1,3-bisacetoacetyl glycerol
